One assay deals with T1, CRF2R (Homo sapiens, UniProt Q13324).
T1 sequence (Q13324 1-411): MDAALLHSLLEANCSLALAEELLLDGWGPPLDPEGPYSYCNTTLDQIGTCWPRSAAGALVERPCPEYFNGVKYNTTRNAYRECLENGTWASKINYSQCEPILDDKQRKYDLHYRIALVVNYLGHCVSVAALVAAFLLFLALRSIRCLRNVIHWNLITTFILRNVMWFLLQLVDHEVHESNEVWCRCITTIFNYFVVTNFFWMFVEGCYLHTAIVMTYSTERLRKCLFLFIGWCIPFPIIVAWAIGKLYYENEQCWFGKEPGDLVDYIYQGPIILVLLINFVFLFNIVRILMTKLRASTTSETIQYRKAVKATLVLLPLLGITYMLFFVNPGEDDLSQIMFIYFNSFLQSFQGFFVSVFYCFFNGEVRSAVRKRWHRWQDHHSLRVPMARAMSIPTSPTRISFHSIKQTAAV
As to the kind of experiment: CRF2R agonist activation (EC50 / Emax), called comparative CRF binding. The class given is cell-based. The settings on record: for EC50: read-out: CRF2R EC50; for Emax: read-out: CRF2R Emax. A digest of the protocol: (§1)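 Peptides are tested on cells bearing CRF1R or CRF2R, full length or as ligand-binding-domain constructs coupled to reporters or G proteins. Activation is scored by cAMP rise, measured in lysates or by CRE-reporter output, against vehicle control.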

For a further assay, the target named is T2, CRF1R (Homo sapiens, UniProt P34998).
T2 sequence (P34998 24-415): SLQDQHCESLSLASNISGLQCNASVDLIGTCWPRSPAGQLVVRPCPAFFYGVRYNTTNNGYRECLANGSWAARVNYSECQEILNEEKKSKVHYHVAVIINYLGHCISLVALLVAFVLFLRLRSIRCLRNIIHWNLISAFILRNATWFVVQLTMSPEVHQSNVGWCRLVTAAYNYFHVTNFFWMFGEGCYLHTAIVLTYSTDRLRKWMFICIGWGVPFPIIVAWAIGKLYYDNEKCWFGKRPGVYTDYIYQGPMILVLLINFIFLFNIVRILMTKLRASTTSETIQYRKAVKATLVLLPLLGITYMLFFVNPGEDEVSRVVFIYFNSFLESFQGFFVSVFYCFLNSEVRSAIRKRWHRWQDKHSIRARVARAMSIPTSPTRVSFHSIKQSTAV
As to the kind of experiment: CRF1R agonist activation (EC50 / Emax), called comparative CRF binding. The class given is cell-based. As to conditions: for EC50: read-out: CRF1R EC50; for Emax: read-out: CRF1R Emax. Summed up: as §1

Peptide text beside a SMILES is read from it.

Broadly, the EC50 is the concentration that produces a half-maximal response. In general, Emax refers to the greatest response seen or fitted, relative to the assay's reference.

On to `CC[C@H](C)[C@H](NC(=O)[C@H](CCCNC(=N)N)NC(=O)[C@H](C)NC(=O)[C@H](CC(N)=O)NC(=O)[C@H](CCC(N)=O)NC(=O)[C@H](CCC(=O)O)NC(=O)[C@H](C)NC(=O)[C@H](CCCNC(=N)N)NC(=O)[C@H](CCC(=O)O)NC(=O)[C@H](CCCNC(=N)N)NC(=O)[C@H](CCC(N)=O)NC(=O)[C@H](CO)NC(=O)[C@H](CCC(N)=O)NC(=O)[C@@H](NC(=O)[C@H](CCCNC(=N)N)NC(=O)[C@H](C)NC(=O)[C@H](CC(C)C)NC(=O)[C@H](CCC(=O)O)NC(=O)[C@H](CC(C)C)NC(=O)[C@H](CC(C)C)NC(=O)[C@@H](NC(=O)[C@H](CCCNC(=N)N)NC(=O)[C@H](CC(C)C)NC(=O)[C@H](CC(C)C)NC(=O)[C@@H](NC(=O)[C@H](CC(C)C)NC(=O)[C@@H]1CCCN1C(=O)[C@H](CC(C)C)NC(=O)[C@H](CC(=O)O)NC(=O)[C@@H](NC(=O)[C@H](CO)NC(=O)[C@H](CC(C)C)NC(=O)[C@H](CO)NC(=O)[C@@H]1CCCN1C(=O)[C@H](CC(N)=O)NC(=O)[C@@H](N)CC(=O)O)[C@@H](C)CC)[C@@H](C)CC)[C@@H](C)O)[C@@H](C)O)C(=O)N[C@@H](Cc1ccccc1)C(=O)N[C@@H](C)C(=O)N[C@@H](CCCNC(=N)N)C(=O)N[C@H](C(N)=O)C(C)C` [compound 330] (H-DNPSLSIDLPLILLRTLLELARTQSQRERAEQNARIFARV-NH2; N-terminus assumed), for which, on CRF2R, the EC50 stood at 6 nM and the Emax was determined as 93.7%. In addition, on CRF1R, the EC50 was no less than 1000 nM and the maximum response (Emax) stood at 86.8%.
In the case of `CC[C@H](C)[C@H](NC(=O)[C@H](CCCNC(=N)N)NC(=O)[C@H](C)NC(=O)[C@H](CC(N)=O)NC(=O)[C@H](CCC(N)=O)NC(=O)[C@H](CCC(=O)O)NC(=O)[C@H](C)NC(=O)[C@H](CCCNC(=N)N)NC(=O)[C@H](CCC(=O)O)NC(=O)[C@H](CCCNC(=N)N)NC(=O)[C@H](CCC(N)=O)NC(=O)[C@H](CO)NC(=O)[C@H](CCC(N)=O)NC(=O)[C@@H](NC(=O)[C@H](CCCCN)NC(=O)[C@H](CCC(=O)O)NC(=O)[C@H](CC(C)C)NC(=O)[C@H](CCC(=O)O)NC(=O)[C@H](CC(C)C)NC(=O)[C@H](CC(C)C)NC(=O)[C@@H](NC(=O)[C@H](CCCNC(=N)N)NC(=O)[C@H](CC(C)C)NC(=O)[C@H](CC(C)C)NC(=O)[C@H](Cc1ccccc1)NC(=O)[C@H](CC(C)C)NC(=O)[C@@H]1CCCN1C(=O)[C@H](CC(C)C)NC(=O)[C@H](CC(=O)O)NC(=O)[C@@H](NC(=O)[C@H](CO)NC(=O)[C@H](CC(C)C)NC(=O)[C@H](CO)NC(=O)[C@@H]1CCCN1)[C@@H](C)CC)[C@@H](C)O)[C@@H](C)O)C(=O)N[C@@H](Cc1ccccc1)C(=O)N[C@@H](C)C(=O)N[C@@H](CCCNC(=N)N)C(=O)N[C@H](C(N)=O)C(C)C` [compound 331] (H-PSLSIDLPLFLLRTLLELEKTQSQRERAEQNARIFARV-NH2; N-terminus assumed), the maximum response (Emax) on CRF2R was 100%; on CRF1R it was 78.7%.
On to `CC[C@H](C)[C@H](NC(=O)[C@H](CCCNC(=N)N)NC(=O)[C@H](C)NC(=O)[C@H](CC(N)=O)NC(=O)[C@H](CCC(N)=O)NC(=O)[C@H](CCC(=O)O)NC(=O)[C@H](C)NC(=O)[C@H](CCCNC(=N)N)NC(=O)[C@H](CCC(=O)O)NC(=O)[C@H](CCCNC(=N)N)NC(=O)[C@H](CCC(N)=O)NC(=O)[C@H](CO)NC(=O)[C@H](CCC(N)=O)NC(=O)[C@@H](NC(=O)[C@H](CCCCN)NC(=O)[C@H](CCC(=O)O)NC(=O)[C@H](CC(C)C)NC(=O)[C@H](CCC(=O)O)NC(=O)[C@H](CC(C)C)NC(=O)[C@H](CC(C)C)NC(=O)[C@@H](NC(=O)[C@H](CCCNC(=N)N)NC(=O)[C@H](CC(C)C)NC(=O)[C@H](CC(C)C)NC(=O)[C@@H](NC(=O)[C@H](CC(C)C)NC(=O)[C@@H]1CCCN1C(=O)[C@H](CC(C)C)NC(=O)[C@H](CC(=O)O)NC(=O)[C@@H](NC(=O)[C@H](CO)NC(=O)[C@H](CC(C)C)NC(=O)[C@H](CO)NC(=O)[C@@H]1CCCN1)[C@@H](C)CC)[C@@H](C)CC)[C@@H](C)O)[C@@H](C)O)C(=O)N[C@@H](Cc1ccccc1)C(=O)N[C@@H](C)C(=O)N[C@@H](CCCNC(=N)N)C(=O)N[C@H](C(N)=O)C(C)C` [compound 332] (H-PSLSIDLPLILLRTLLELEKTQSQRERAEQNARIFARV-NH2; N-terminus assumed), for which the Emax at CRF2R was determined as 100%; at CRF1R, 61.3%.
As for `CC[C@H](C)[C@H](NC(=O)[C@H](CCCNC(=N)N)NC(=O)[C@H](C)NC(=O)[C@H](CC(N)=O)NC(=O)[C@H](CCC(N)=O)NC(=O)[C@H](CCC(=O)O)NC(=O)[C@H](C)NC(=O)[C@H](CCCNC(=N)N)NC(=O)[C@H](CCC(=O)O)NC(=O)[C@H](CCCNC(=N)N)NC(=O)[C@H](CCC(N)=O)NC(=O)[C@H](CO)NC(=O)[C@H](CCC(N)=O)NC(=O)[C@@H](NC(=O)[C@H](CCCCN)NC(=O)[C@H](CCC(=O)O)NC(=O)[C@H](CC(C)C)NC(=O)[C@H](CCC(=O)O)NC(=O)[C@H](CC(C)C)NC(=O)[C@H](CC(C)C)NC(=O)[C@@H](NC(=O)[C@H](CCCNC(=N)N)NC(=O)[C@H](CC(C)C)NC(=O)[C@H](CC(C)C)NC(=O)[C@H](CC(C)C)NC(=O)[C@H](CC(C)C)NC(=O)[C@@H]1CCCN1C(=O)[C@H](CC(C)C)NC(=O)[C@H](CC(=O)O)NC(=O)[C@@H](NC(=O)[C@H](CO)NC(=O)[C@H](CC(C)C)NC(=O)[C@H](CO)NC(=O)[C@@H]1CCCN1)[C@@H](C)CC)[C@@H](C)O)[C@@H](C)O)C(=O)N[C@@H](Cc1ccccc1)C(=O)N[C@@H](C)C(=O)N[C@@H](CCCNC(=N)N)C(=O)N[C@H](C(N)=O)C(C)C` [compound 333] (H-PSLSIDLPLLLLRTLLELEKTQSQRERAEQNARIFARV-NH2; N-terminus assumed), at CRF2R, the EC50 came out at 9.85 nM and the Emax was determined as 96.9%. Also, at CRF1R, the EC50 was no less than 1000 nM and the maximal response (Emax) turned out to be 43.8%.
Consider `CC[C@H](C)[C@H](NC(=O)[C@H](CCCNC(=N)N)NC(=O)[C@H](C)NC(=O)[C@H](CC(N)=O)NC(=O)[C@H](CCC(N)=O)NC(=O)[C@H](CCC(=O)O)NC(=O)[C@H](C)NC(=O)[C@H](CCCNC(=N)N)NC(=O)[C@H](CCC(=O)O)NC(=O)[C@H](CCCNC(=N)N)NC(=O)[C@H](CCC(N)=O)NC(=O)[C@H](CO)NC(=O)[C@H](CCC(N)=O)NC(=O)[C@@H](NC(=O)[C@H](CCCCN)NC(=O)[C@H](CCC(=O)O)NC(=O)[C@H](CC(C)C)NC(=O)[C@H](CCC(=O)O)NC(=O)[C@H](CC(C)C)NC(=O)[C@H](CC(C)C)NC(=O)[C@@H](NC(=O)[C@H](CCCNC(=N)N)NC(=O)[C@H](CC(C)C)NC(=O)[C@H](CC(C)C)NC(=O)[C@H](Cc1ccccc1)NC(=O)[C@H](CC(C)C)NC(=O)[C@@H]1CCCN1C(=O)[C@H](CC(C)C)NC(=O)[C@H](CC(=O)O)NC(=O)[C@@H](NC(=O)[C@H](CO)NC(=O)[C@H](CC(C)C)NC(=O)[C@H](CO)NC(=O)[C@@H]1CCCN1C(=O)[C@H](CC(N)=O)NC(=O)[C@@H](N)CC(=O)O)[C@@H](C)CC)[C@@H](C)O)[C@@H](C)O)C(=O)N[C@@H](Cc1ccccc1)C(=O)N[C@@H](C)C(=O)N[C@@H](CCCNC(=N)N)C(=O)N[C@H](C(N)=O)C(C)C` [compound 334] (H-DNPSLSIDLPLFLLRTLLELEKTQSQRERAEQNARIFARV-NH2; N-terminus assumed), for which, at CRF2R, the concentration for a half-maximal effect (EC50) amounted to 13.2 nM and the Emax amounted to 93.5%. Moreover, on CRF1R, the EC50 was no less than 1000 nM and the Emax amounted to 82.6%.
The matching figures for `CC[C@H](C)[C@H](NC(=O)[C@H](CCCNC(=N)N)NC(=O)[C@H](C)NC(=O)[C@H](CC(N)=O)NC(=O)[C@H](CCC(N)=O)NC(=O)[C@H](CCC(=O)O)NC(=O)[C@H](C)NC(=O)[C@H](CCCNC(=N)N)NC(=O)[C@H](CCC(=O)O)NC(=O)[C@H](CCCNC(=N)N)NC(=O)[C@H](CCC(N)=O)NC(=O)[C@H](CO)NC(=O)[C@H](CCC(N)=O)NC(=O)[C@@H](NC(=O)[C@H](CCCCN)NC(=O)[C@H](CCC(=O)O)NC(=O)[C@H](CC(C)C)NC(=O)[C@H](CCC(=O)O)NC(=O)[C@H](CC(C)C)NC(=O)[C@H](CC(C)C)NC(=O)[C@@H](NC(=O)[C@H](CCCNC(=N)N)NC(=O)[C@H](CC(C)C)NC(=O)[C@H](CC(C)C)NC(=O)[C@@H](NC(=O)[C@H](CC(C)C)NC(=O)[C@@H]1CCCN1C(=O)[C@H](CC(C)C)NC(=O)[C@H](CC(=O)O)NC(=O)[C@@H](NC(=O)[C@H](CO)NC(=O)[C@H](CC(C)C)NC(=O)[C@H](CO)NC(=O)[C@@H]1CCCN1C(=O)[C@H](CC(N)=O)NC(=O)[C@@H](N)CC(=O)O)[C@@H](C)CC)[C@@H](C)CC)[C@@H](C)O)[C@@H](C)O)C(=O)N[C@@H](Cc1ccccc1)C(=O)N[C@@H](C)C(=O)N[C@@H](CCCNC(=N)N)C(=O)N[C@H](C(N)=O)C(C)C` [compound 335] (H-DNPSLSIDLPLILLRTLLELEKTQSQRERAEQNARIFARV-NH2; N-terminus assumed): 28 nM, 91%, no less than 1000 nM and 49.5%.

(Values after patent US6936585B2, “Corticotropin releasing factor 2 receptor agonists” (priority 2002, dated 2005).)
